Results as given in patent publication US20130072427A1, “GPR 119 MODULATORS” (Pfizer Inc., priority 2009, published 2013).
Where “and” joins values, the source holds several entries; their conditions need not be identical. Identical values can stand only once. Like-named read-outs stand apart in the source and are kept apart here.

Biological target: T1, human GPR119 (Homo sapiens, UniProt Q8TDV5)
T1 construct: host or cells: HEK293-CRE beta-lactamase cells
T1 sequence (Q8TDV5 1-335): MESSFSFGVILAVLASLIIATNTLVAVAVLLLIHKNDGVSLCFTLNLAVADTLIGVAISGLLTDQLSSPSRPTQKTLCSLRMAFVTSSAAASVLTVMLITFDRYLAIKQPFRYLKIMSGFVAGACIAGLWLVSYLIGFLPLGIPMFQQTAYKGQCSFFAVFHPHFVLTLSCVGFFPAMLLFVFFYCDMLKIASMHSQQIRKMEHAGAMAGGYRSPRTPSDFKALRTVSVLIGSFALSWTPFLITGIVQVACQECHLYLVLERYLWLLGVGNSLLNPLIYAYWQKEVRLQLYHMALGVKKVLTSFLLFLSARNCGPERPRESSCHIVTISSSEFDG
Test: cAMP functional assay (HTRF, hGPR119 HEK-CRE beta-lactamase cells)
Format: cell-based
Description: GPR119 agonist activity was also determined with a cell-based assay utilizing an HTRF (Homogeneous Time-Resolved Fluorescence) cAMP detection kit (cAMP dynamic 2 Assay Kit; Cis Bio cat #62AM4PEC) that measures cAMP levels in the cell. The method is a competitive immunoassay between native cAMP produced by the cells and the cAMP labeled with the dye d2. The tracer binding is visualized by a Mab anti-cAMP labeled with Cryptate. The specific signal (i.e. energy transfer) is inversely proportional to the concentration of cAMP in either standard or sample.
Specifically, hGPR119HEK-CRE beta-lactamase cells (Invitrogen 2.5×10^7/ml; the same cell line used in the beta-lactamase assay described above) are removed from cryopreservation and diluted in growth medium (Dulbecco's modified Eagle medium high glucose (DMEM; Gibco Cat #11995-065), 1% charcoal dextran treated fetal bovine serum (CD serum; HyClone Cat #SH30068.03), 1×MEM Nonessential amino acids (Gibco Cat #15630-080) and 25 mM HEPES pH 7.0 (Gibco Cat #15630-080)). The cell concentration was adjusted to 1.5×10^5 cells/ml and 30 mls of this suspension was added to a T-175 flask and incubated at 37 degrees Celsius in a humidified environment in 5% carbon dioxide. After 16 hours (overnight), the cells were removed from the T-175 flask (by rapping the side of the flask), centrifuged at 800×g and then re-suspended in assay medium (1×HBSS+CaCl2+MgCl2 (Gibco Cat #14025-092) and 25 mM HEPES pH 7.0 (Gibco Cat #15630-080)). The cell concentration was adjusted to 6.25×10^5 cells/ml with assay medium and 8 μl of this cell suspension (5000 cells) was added to each well of a white Greiner 384-well, low-volume assay plate (VWR cat #82051-458).
Varying concentrations of each compound to be tested were diluted in assay buffer containing 3-isobutyl-1-methylxanthin (IBMX; Sigma cat #15879) and added to the assay plate wells in a volume of 2 microL (final IBMX concentration was 400 microM and final DMSO concentration was 0.58%). Following 30 minutes incubation at room temperature, 5 microL of labeled d2 cAMP and 5 microL of anti-cAMP antibody (both diluted 1:20 in cell lysis buffer; as described in the manufacturers assay protocol) were added to each well of the assay plate. The plates were then incubated at room temperature and after 60 minutes, changes in the HTRF signal were read with an Envision 2104 multilabel plate reader using excitation of 330 nm and emissions of 615 and 665 nm. Raw data were converted to nM cAMP by interpolation from a cAMP standard curve (as described in the manufacturer's assay protocol) and EC50 determinations were made from an agonist-response curves analyzed with a curve fitting program using a 4-paramter logistic dose response equation.

[1] = hGPR119 HEK-CRE beta-lactamase cells, HTRF cAMP, 30 minutes, one line per run, read-out: Human cAMP Functional EC50
[2] = percent of maximal activity relative to standard GPR119 agonist (WO2005121121) at 10 μM, one line per run, read-out: Intrinsic Activity* (%) (cAMP)

Row | SMILES | EC50 [1] | Emax [2] [%] | EC50 (**the curve was extrapolated to 100% to calculate an EC50, read-out: Human cAMP Functional EC50 (nM), curve extrapolated to 100%) [nM] | Emax (**the curve was extrapolated to 100% to calculate an EC50, read-out: Intrinsic Activity* (%) (cAMP), curve extrapolated to 100%)
1 | Cc1c(OC2CCN(C(=O)OC(C)C)CC2)ncnc1N1Cc2cnn(C)c2C1 [Example 2, Isopropyyl 4-{[5-methyl-6-(1-methyl-4,6-dihydropyrrolo[3,4-c]pyrazol-5(1H)-yl)pyrimidin-4-yl]oxy}piperidine-1-carboxylate] | 296 nM and 170 nM and 135 nM and 434 nM | 45 |  | 
2 | Cc1c(O[C@H]2CCN(C(=O)OC(C)(C)C)C[C@H]2F)ncnc1N1Cc2cnn(C)c2C1 (racemic) [Example 6, tert-Butyl (3,4-cis)-3-fluoro-4-{[5-methyl-6-(1-methyl-4,6-dihydropyrrolo[3,4-c]pyrazol-5(1H)-yl)pyrimidin-4-yl]oxy}piperidine-1-carboxylate (racemic)] | 39 nM and 35 nM and 133 nM and 289 nM | 60 |  | 
3 | CC(C)OC(=O)N1CCC(Oc2ncnc(N3Cc4cnn(C)c4C3)c2C#N)CC1 [Example 3, Isopropyyl 4-{[5-cyano-6-(1-methyl-4,6-dihydropyrrolo[3,4-c]pyrazol-5(1H)-yl)pyrimidin-4-yl]oxy}piperidine-1-carboxylate] |  | 51 | 6250 | 100

Results, then the compound that gave them:

Row | EC50 [1] | Emax [2] [%] | EC50 (**the curve was extrapolated to 100% to calculate an EC50, read-out: Human cAMP Functional EC50 (nM), curve extrapolated to 100%) [nM] | Emax (**the curve was extrapolated to 100% to calculate an EC50, read-out: Intrinsic Activity* (%) (cAMP), curve extrapolated to 100%) | SMILES
4 | 182 nM and 78 nM and 85 nM |  |  |  | Cc1c(O[C@H]2CCN(C(=O)OC(C)(C)C)C[C@@H]2F)ncnc1N1Cc2cnn(C)c2C1 (racemic) [Example 8, tert-Butyl (3,4-trans)-3-fluoro-4-{[5-methyl-6-(1-methyl-4,6-dihydropyrrolo[3,4-c]pyrazol-5(1H)-yl)pyrimidin-4-yl]oxy}piperidine-1-carboxylate (racemic)]
5 | 17 nM and 14 nM and 12 nM | 80 |  |  | Cc1c(O[C@H]2CCN(C(=O)OC3(C)CC3)C[C@H]2F)ncnc1N1Cc2cnn(C)c2C1 (racemic) [Example 7, 1-Methylcyclopropyyl (3,4-cis)-3-fluoro-4-{[5-methyl-6-(1-methyl-4,6-dihydropyrrolo[3,4-c]pyrazol-5(1H)-yl)pyrimidin-4-yl]oxy}piperidine-1-carboxylate (racemic)]
6 | 64 nM and 57 nM and 77 nM | 72 |  |  | Cc1c(O[C@H]2[C@@H]3COC[C@H]2CN(C(=O)OC(C)(C)C)C3)ncnc1N1Cc2cnn(C)c2C1 [Example 9, tert-Butyl (9-anti)-9-{[5-methyl-6-(1-methyl-4,6-dihydropyrrolo[3,4-c]pyrazol-5(1H)-yl)pyrimidin-4-yl]oxy}-3-oxa-7-azabicyclo[3.3.1]nonane-7-carboxylate]
